# Results from patent US9376470B2, “Polypeptide having angiogenesis-inducing activity and antibacterial activity, and use thereof for medical purposes” (FunPep Inc., priority 2008, dated 2016).
# Where two headings read alike, the source gives them in different places. Peptide text beside a SMILES is read from it.
# Key:
# [1] = system: Escherichia coli ATCC 25922; assay: microbe, parasite or virus in culture; format: cell-based; conditions: ATCC25922, 37° C., 20 hours
# Method: (§1) ATP (%) of the antibacterial activity was measured in the same manner as mentioned above, and the “minimum inhibitory concentration (MIC)” was measured as follows. MIC is the lowest concentration of an agent that may inhibit the growth of a bacterium. MIC is used as a parameter for the efficacy of an antibacterial agent, for the strength of bacterial sensitivity, or the like. The bacteria can grow (proliferate) when the concentration is not higher than MIC, and cannot grow when the concentration is higher than MIC. […] (CLSI), but, in this Example, its measurement was carried out by a broth microdilution method in accordance with “M100-S17/M7-A7” (Performance Standards for Antimicrobial Susceptibility Testing; Seventeenth Informational Supplement, Vol. 27 No. 1) published by CLSI on January, 2007. That is, sensitivity test of agents was carried out using a microtiter plate or test tubes. The bacteria were cultured in the liquid media for 4 to 6 hours, and thereafter absorbances at A600 were measured. Bacterial suspensions were diluted with Mueller-Hinton broth (MHB) according to McFarland #0.5. Each strain was added so as to attain about 10^5 CFU/ml (final concentration). Each peptide was prepared to an optional concentration, and the solutions were serially diluted from the concentration. The polypeptide at each concentration stage was added to a microplate or test tubes, and the bacterial suspension was added thereto. […] The plate was incubated at 37° C. for 20 hours, the lowest concentration where bacterial growth was inhibited was regarded as the minimum inhibitory concentration. With respect to each strain, Escherichia coli: ATCC 25922 (Escherichia coli ATCC 25922), Pseudomonas aeruginosa: ATCC 27853 (Pseudomonas aeruginosa ATCC 27853), Staphylococcus aureus: ATCC29213 (Staphylococcus aureus ATCC29213), Klebsiella pneumoniae: JCM 1662 (Klebsiella pneumoniae JCM 1662), enterobacteria (1): JCM 1232 (Enterobacter cloacae JCM 1232), enterobacteria (2): JCM 1235 (Enterobacter aerogenes JCM 1235), and Staphylococcus epidermidis: JCM 2414 (Staphylococcus epidermidis JCM 2414), were used. […] As the concentrations of the agents in ATP assay, the concentrations as described in the Tables were used.
# [2] = system: Pseudomonas aeruginosa ATCC 27853; assay: microbe, parasite or virus in culture; format: cell-based; conditions: 37° C., 20 hours; for MIC: Pseudomonas aeruginosa, ATCC27853
# Method: as §1
# [3] = system: Staphylococcus aureus ATCC29213; assay: microbe, parasite or virus in culture; format: cell-based; conditions: 37° C., 20 hours
# Method: as §1
# [4] = system: Staphylococcus epidermidis JCM 2414; assay: microbe, parasite or virus in culture; format: cell-based; conditions: 37° C., 20 hours; for MIC: Staphylococcus epidermidis, JCM2414
# Method: as §1
# [5] = in vitro; format: in vitro ADME, rat; conditions: for half-life: rat serum, 37° C.; for remaining at 0.5 h, 500 μg/mL / remaining at 1 h, 500 μg/mL / remaining at 10 min, 500 μg/mL: rat, serum
# Method: (§2) Then, the stability of five polypeptides SR-1 to 5 in serum was evaluated.
# (§3) In human serum (purchased from KAC Co., Ltd.), or in rat serum obtained by collecting blood from a rat, then leaving the collected blood to stand at room temperature followed by centrifugation, each of the peptides was dissolved so as to attain a final concentration of 500 μg/mL, and the obtained solutions were left to stand at 37° C. After leaving to stand for 10 min or 30 min or 60 min, these solutions were subjected to HPLC chromatogram analysis to detect peaks of the decomposition products, and calculate the ratio of the concentration of the peptides which remained in the solutions relative to the starting concentration. In addition, the half-lives of the peptides in serum were also calculated.
# (§4) HPLC chromatogram analysis conditions are as follows.
# [6] = format: in vitro ADME; conditions: human serum, 37° C.
# Method: as §2, §3, §4
# [7] = system: Crl:CD (SD) rats; assay: Ability to form granulation tissue in paper disc model; format: in vivo, rat; conditions: 10 μg/disc (250 μg/mL×40 μl/disc), subcutaneous paper disc, eight days later
# Description: Then, the ability to form granulation tissue of five polypeptides SR-1 to 5 in vivo was studied. […] The prepared paper discs were embedded subcutaneously into the back of Crl:CD (SD) rats (male, 9-week old, obtained from Charles River Laboratories Japan, Inc.). Eight days later, the paper discs were taken out, and the granulation tissues around the paper discs were collected to determine their wet weight.
# [8] = system: Crl:CD (SD) rats, cut wound; assay: Effect to heal cut wounds, rat cut-wound model; format: in vivo; conditions: for wound closing tension: 10, 100 and 1000 μg/mL, 50 μL dropwise once a day, measured on day 6; for scars of cut wounds / cicatrization by visual observation, compared with the bFGF formulation: rat cut-wound model, data not shown
# Method: Next, using rat cut-wound model, the effect of the five polypeptides SR-1 to 5 to heal cut wounds in vivo was evaluated. As described in Tetsuaki Yamaura et al. (Oyo Yakuri (Pharmacometrics) 22, 565-579 (1981)), the rat cut-wound model was produced and the wound closing tension was measured. That is, a cut wound of 30 to 36 mm was made on the back of Crl:CD (SD) rats (male, 7-week old, obtained from Charles River Laboratories Japan, Inc.) using a safety razor, and sutured at 3 points equally spaced. The day when this surgical treatment was applied was regarded as […] (day 0). […] Additions of 50 μL physiological saline were regarded as negative controls (Saline). […] The sutures were removed day 3, and the wound closing tension was measured on day 6.
SMILES,MIC [1] [µg/mL],MIC [2] [µg/mL],MIC [3] [µg/mL],MIC [4] [µg/mL],MIC Staphylococcus epidermidis [4],decomposition in rat serum [5],half-life [5] [min],"remaining at 0.5 h, 500 μg/mL [5] [%]","remaining at 1 h, 500 μg/mL [5] [%]",half-life [6] [min],granulation tissue weight [7],wound closing tension [8],"scars of cut wounds / cicatrization by visual observation, compared with the bFGF formulation [8]","remaining at 10 min, 500 μg/mL [5] [%]",MIC Pseudomonas aeruginosa [2]
"C[C@@H](O)[C@H]1C(=O)N2C(C(=O)O)=C(S[C@@H]3CN[C@H](C(=O)N(C)C)C3)[C@H](C)[C@H]12 [MEPM, meropenem, reference compound]",0.008 to 0.06,0.25 to 1,0.03 to 0.12,0.125,–,–,–,–,–,–,–,–,–,–,–
"Cc1onc(-c2ccccc2)c1C(=O)N[C@@H]1C(=O)N2[C@@H]1SC(C)(C)[C@@H]2C(=O)O [OX, oxacillin, reference compound]",–,–,0.12 to 0.5,0.12 to 0.5,–,–,–,–,–,–,–,–,–,–,–
CC[C@H](C)[C@H](NC(=O)[C@H](CC(C)C)NC(=O)[C@H](CCCCN)NC(=O)[C@H](CC(C)C)NC(=O)[C@@H](N)CCSC)C(=O)N[C@@H](Cc1ccccc1)C(=O)N[C@@H](CC(C)C)C(=O)N[C@@H](Cc1c[nH]cn1)C(=O)N[C@@H](CCCNC(=N)N)C(=O)N[C@@H](CC(C)C)C(=O)N[C@@H](CCCCN)C(=O)N[C@@H](CCCNC(=N)N)C(=O)N[C@@H](CCSC)C(=O)N[C@@H](CCCNC(=N)N)C(=O)N[C@@H](CCCCN)C(=O)N[C@@H](CCCNC(=N)N)C(=O)N[C@@H](CC(C)C)C(=O)N[C@@H](CCCCN)C(=O)N[C@@H](CCCNC(=N)N)C(=O)N[C@@H](CCCCN)C(=O)O [SR-1] (H-MLKLIFLHRLKRMRKRLKRK-OH; N-terminus assumed),–,–,–,–,128< μg/mL,completely decomposed,3,0,0,4,largest increase in the granulation tissue weight,effect of increasing the wound closing tension,cicatrization was hardly observed,–,–
CC(C)C[C@H](NC(=O)[C@H](CCCCN)NC(=O)[C@H](CCCNC(=N)N)NC(=O)[C@H](CCCCN)NC(=O)[C@H](CC(C)C)NC(=O)[C@H](CCCNC(=N)N)NC(=O)[C@H](CCCCN)NC(=O)[C@H](CCCNC(=N)N)NC(=O)[C@H](CC(C)C)NC(=O)[C@H](CCCNC(=N)N)NC(=O)[C@H](CCCNC(=N)N)NC(=O)[C@H](CCCCN)NC(=O)[C@H](CC(C)C)NC(=O)[C@H](CCCNC(=N)N)NC(=O)[C@H](Cc1c[nH]cn1)NC(=O)[C@H](CC(C)C)NC(=O)[C@H](Cc1ccccc1)NC(=O)[C@H](CCCNC(=N)N)NC(=O)[C@H](CC(C)C)NC(=O)[C@@H](N)CCC(=O)O)C(=O)N[C@@H](CCCNC(=N)N)C(N)=O [SR-2] (H-ELRFLHRLKRRLRKRLKRKLR-NH2; N-terminus assumed),–,–,–,–,–,35-55%,75,–,51.7,12,–,–,cicatrization was hardly observed,69,–
CSCC[C@H](NC(=O)[C@H](CCCNC(=N)N)NC(=O)[C@H](CCCCN)NC(=O)[C@H](CC(C)C)NC(=O)[C@H](CCCNC(=N)N)NC(=O)[C@H](Cc1c[nH]cn1)NC(=O)[C@H](CC(C)C)NC(=O)[C@H](Cc1ccccc1)NC(=O)[C@H](CCCNC(=N)N)NC(=O)[C@H](CC(C)C)NC(=O)[C@@H](N)CCC(=O)O)C(=O)N[C@@H](CCCNC(=N)N)C(=O)N[C@@H](CCCCN)C(=O)N[C@@H](CCCNC(=N)N)C(=O)N[C@@H](CC(C)C)C(=O)N[C@@H](CCCCN)C(=O)N[C@@H](CCCNC(=N)N)C(=O)N[C@@H](CCCCN)C(=O)N[C@@H](CC(C)C)C(=O)N[C@@H](CCCNC(=N)N)C(N)=O [SR-3] (H-ELRFLHRLKRMRKRLKRKLR-NH2; N-terminus assumed),–,–,–,–,–,35-55%,67,–,44.4,15,largest increase in the granulation tissue weight,effect of increasing the wound closing tension,cicatrization was hardly observed,53,–
CC[C@H](C)[C@H](NC(=O)[C@H](CC(C)C)NC(=O)[C@@H](N)CCCCN)C(=O)N[C@@H](Cc1ccccc1)C(=O)N[C@@H](CC(C)C)C(=O)N[C@@H](Cc1c[nH]cn1)C(=O)N[C@@H](CCCNC(=N)N)C(=O)N[C@@H](CC(C)C)C(=O)N[C@@H](CCCCN)C(=O)N[C@@H](CCCNC(=N)N)C(=O)N[C@@H](CCSC)C(=O)N[C@@H](CCCNC(=N)N)C(=O)N[C@@H](CCCCN)C(=O)N[C@@H](CCCNC(=N)N)C(=O)N[C@@H](CC(C)C)C(=O)N[C@@H](CCCCN)C(=O)N[C@@H](CCCNC(=N)N)C(=O)N[C@@H](CCCCN)C(=O)N[C@@H](CC(C)C)C(=O)N[C@@H](CCCNC(=N)N)C(N)=O [SR-4] (H-KLIFLHRLKRMRKRLKRKLR-NH2; N-terminus assumed),–,–,–,–,–,35-55%,95,95,64.5,16,–,effect of increasing the wound closing tension,cicatrization was hardly observed,–,–
CSCC[C@H](NC(=O)[C@H](CCCNC(=N)N)NC(=O)[C@@H](N)CCCCN)C(=O)N[C@@H](CCCNC(=N)N)C(=O)N[C@@H](CCCCN)C(=O)N[C@@H](CCCNC(=N)N)C(=O)N[C@@H](CC(C)C)C(=O)N[C@@H](CCCCN)C(=O)N[C@@H](CCCNC(=N)N)C(=O)N[C@@H](CCCCN)C(=O)N[C@@H](CC(C)C)C(=O)N[C@@H](CCCNC(=N)N)C(=O)N[C@@H](CC(C)C)C(=O)N[C@@H](Cc1c[nH]c2ccccc12)C(=O)N[C@@H](Cc1c[nH]cn1)C(=O)N[C@@H](CCCNC(=N)N)C(=O)N[C@@H](CCCCN)C(=O)N[C@@H](CCCNC(=N)N)C(=O)N[C@@H](Cc1ccc(O)cc1)C(=O)N[C@@H](CCCCN)C(=O)O [SR-5] (H-KRMRKRLKRKLRLWHRKRYK-OH; N-terminus assumed),–,–,–,–,–,completely decomposed,4,0,0,21,–,effect of increasing the wound closing tension,–,–,128≦ μg/mL
"NC[C@H]1O[C@H](O[C@H]2[C@H](O)[C@@H](O[C@H]3O[C@H](CO)[C@@H](O)[C@H](N)[C@H]3O)[C@H](N)C[C@@H]2N)[C@H](N)C[C@@H]1O [TOB, tobramycin, reference compound]",0.25 to 1,0.25 to 1,0.12 to 1,1,–,–,–,–,–,–,–,–,–,–,–
